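Where inhibition never reached the appropriate level, the endpoint shown equals the highest concentration tested. Otherwise, values were interpolated linearly from a five-concentration, 48-hour dose response in 96-well plates. GI50 = concentration required for 50% inhibition of growth. At the TGI there is no net growth.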 Where a SMILES comes first, the peptide text is derived from it. [ ]: non-standard residue; d: D form. The star is where a group is joined. ξ: configuration not given here. ξF = NC(Cc1ccccc1)C(=O)O; Cbz = O=C(OCc1ccccc1)*; Aib = CC(C)(N)C(=O)O
Legend:
Experiment in all cases: DTP human tumour cell line panel, 48 h
ACHN renal = tested on: ACHN renal
UACC-257 melanoma = tested on: UACC-257 melanoma
UO-31 renal = tested on: UO-31 renal
SK-MEL-28 melanoma = tested on: SK-MEL-28 melanoma
KM12 colon = tested on: KM12 colon
CCRF-CEM leukemia = tested on: CCRF-CEM leukemia
M14 melanoma = tested on: M14 melanoma
SF-295 CNS = tested on: SF-295 CNS
MDA-MB-435 = tested on: MDA-MB-435
MDA-MB-231 breast = tested on: MDA-MB-231 breast

Row | Compound | TGI (ACHN renal) [µM] | TGI (UACC-257 melanoma) [µM] | TGI (UO-31 renal) [µM] | TGI (SK-MEL-28 melanoma) [µM] | TGI (KM12 colon) [µM] | TGI (CCRF-CEM leukemia) [µM] | TGI (M14 melanoma) [µM] | TGI (SF-295 CNS) [µM] | TGI (MDA-MB-435) [µM] | TGI (MDA-MB-231 breast) [µM] | GI50 (ACHN renal) [µM] | GI50 (UACC-257 melanoma) [µM] | GI50 (UO-31 renal) [µM] | GI50 (SK-MEL-28 melanoma) [µM] | GI50 (MDA-MB-435) [µM] | GI50 (KM12 colon) [µM] | GI50 (CCRF-CEM leukemia) [µM] | GI50 (MDA-MB-231 breast) [µM] | GI50 (M14 melanoma) [µM] | GI50 (SF-295 CNS) [µM]
1 | CCCCOCc1cc(CN2CCN(C)CC2)c(O)c2ncccc12 | 54.2 | > 100 | 55.8 | > 100 | > 100 | 30.2 | 90 | 33.5 |  |  |  |  |  |  |  |  |  |  |  | 
2 | Cc1ccc(C(O)(c2ccc(C)cc2)c2ccccn2)cc1 | > 100 | > 100 | > 100 | > 100 |  | > 100 | > 100 | > 100 |  |  |  |  |  |  |  |  |  |  |  | 
3 | CC(=O)ON1C(=O)c2cccc3cccc(c23)C1=O | > 100 | 67 | > 100 | 44.6 | > 100 | > 100 | 90.9 | > 100 | 39.8 | > 100 |  |  |  |  |  |  |  |  |  | 
4 | C(=N\OCCc1ccccc1)/c1cccnc1 | > 100 | > 100 | > 100 | > 100 | > 100 | > 100 | > 100 | > 100 | > 100 | > 100 |  |  |  |  |  |  |  |  |  | 
5 | COC(=O)C(C)(C)NC(=O)C(Cc1ccccc1)NC(=O)C(C)(C)NC(=O)OCc1ccccc1 (centres undefined) (Cbz-[Aib]-[ξF]-[Aib]-OMe) | > 100 | > 100 | > 100 | > 100 |  | > 100 | > 100 | > 100 | > 100 | > 100 |  |  |  |  |  |  |  |  |  | 
6 | NCCSCc1ccccc1Cl | > 100 | 51.9 | > 100 | > 100 | > 100 | 78.8 | > 100 | > 100 | > 100 | > 100 |  |  |  |  |  |  |  |  |  | 
7 | Nc1nc2ccc(OCC(O)CN3CCCCC3)cc2[n+]([O-])n1 (centres undefined) | > 100 | > 100 | > 100 | > 100 | > 100 | > 100 | > 100 | > 100 | > 100 | > 100 |  |  |  |  |  |  |  |  |  | 
8 | Nc1c(-c2ccccc2[N+](=O)[O-])nc2ccccn12 | > 100 | > 100 | > 100 | > 100 | > 100 | > 100 | > 100 | > 100 |  |  |  |  |  |  |  |  |  |  |  | 
9 | COc1cc(-c2n/c(=C\c3c(O)[nH]c4cc(Cl)ccc34)cc3c2=Nc2ccccc2-3)cc(OC)c1OC | 22.2 | 18.8 | > 100 | 13.8 | > 100 | > 100 | 5.66 | 5.19 | 51.3 | 11.3 | 4.49 | 4.01 | 18.3 | 4.05 | 6.39 | 5.89 | 3.88 | 3.17 | 2.41 | 2.17
10 | CC(C)(CCCCC(C)(C)C1NC(=O)N1)C1NC(=O)N1 | > 10 |  | > 10 | > 10 | > 10 | > 10 | > 10 | > 10 | > 10 | > 10 |  |  |  |  |  |  |  |  |  | 
11 | c1cncc(O[Si](Oc2cccnc2)(Oc2cccnc2)Oc2cccnc2)c1 |  | > 100 | > 100 | > 100 | > 100 |  | > 100 | > 100 |  |  |  |  |  |  |  |  |  |  |  | 
12 | C[CH2][Ge]([CH2]C)([CH2]C)[O]C(=O)CCC(=O)[O][Ge]([CH2]C)([CH2]C)[CH2]C | > 100 |  | > 100 | > 100 | > 100 | > 100 | > 100 |  |  |  | > 100 |  | 87.5 | > 100 |  | 55.2 | 23.7 |  | > 100 | 

Reference: PubChem BioAssay (NCI)
